Where two headings read alike, the source gives them in different places.
Columns and labels:
[1] = target: Recombinant human Aurora B (amino acids 1-344) (Homo sapiens (Human), UniProt Q96GD4); assay: Aurora B kinase test (ADP Glo luminescence); assay type: biochemical
[2] = Human liver microsomal stability test; assay type: in vitro ADME; conditions: human liver microsomes
Method: The metabolic degradation for a specific SYK-inhibitor is performed at 37° C. with pooled human liver microsomes (human liver microsomes are commercially available as “BD UltraPool™” by Corning Life Sciences, Fogostraat 12, 1060 LJ Amsterdam, The Netherlands). The final incubation volume of 100 μl per time point contains TRIS buffer pH 7.6 at RT (0.1 M), magnesium chloride (5 mM), microsomal protein (1 mg/ml) and the test compound at a final concentration of 1 μM.
Following a short preincubation period at 37° C., the reaction is initiated by addition of beta-nicotinamide adenine dinucleotide phosphate in its reduced form (NADPH, 1 mM) and terminated by transfering an aliquot into solvent after different time points. Additionally, the NADPH-independent degradation is monitored in incubations without NADPH, terminated at the last time point.
The quenched (terminated) incubations are then pelleted by centrifugation (10000 g, 5 min).
An aliquot of the supernatant is assayed by LC-MS/MS for the remaining amount of parent compound. The half-life (t1/2 INVITRO) is determined by the slope of the semilogarithmic plot of the concentration-time profile.
The intrinsic clearance (CL_[…]) is calculated by considering the amount of protein in the incubation: CL_[…][μl/min/mg protein]=(Ln 2/(t1/2 INVITRO[min]*protein content[mg/ml]))*1000
The protein content [mg/ml] was determined with the “Bicinchoninic Acid Kit” of Sigma Aldrich (commercially available).
The upscaled intrinsic Clearance (CL_UP_INT) is calculated by considering the liver weight [g liver/kg body weight] and the microsomal recovery [mg protein/g liver]: CL_UP_INT[ml/min/kg]=0.001*CL_[…]*liver weight*microsomal recovery • with microsomal recovery=45 mg protein/g liver • with liver weight=25.7 g liver/kg body weight
The percent hepatic blood flow (% Qh) is finally calculated by considering the human liver blood flow Q [ml/min/kg]: % Qh[%]=((Q*CL_UP_INT)/(Q+CL_UP_INT)/Q)*100 • with liver blood flow (Q)=20.7 ml/min/kg.

[3] = target: Recombinant human Syk (amino acids 342-635), GST-Syk kinase fusion protein (Homo sapiens (Human), UniProt P43405); assay: Syk kinase test (Kinase Glo luminescence); assay type: biochemical
[4] = target: Human GSK3beta (Homo sapiens (Human), UniProt P49841); assay: GSK 3beta kinase test (Z'-LYTE); assay type: biochemical; conditions: read-out: IC50 in μM (GSK3beta-Inhibition)
Chain of Human GSK3beta (P49841 whole entry): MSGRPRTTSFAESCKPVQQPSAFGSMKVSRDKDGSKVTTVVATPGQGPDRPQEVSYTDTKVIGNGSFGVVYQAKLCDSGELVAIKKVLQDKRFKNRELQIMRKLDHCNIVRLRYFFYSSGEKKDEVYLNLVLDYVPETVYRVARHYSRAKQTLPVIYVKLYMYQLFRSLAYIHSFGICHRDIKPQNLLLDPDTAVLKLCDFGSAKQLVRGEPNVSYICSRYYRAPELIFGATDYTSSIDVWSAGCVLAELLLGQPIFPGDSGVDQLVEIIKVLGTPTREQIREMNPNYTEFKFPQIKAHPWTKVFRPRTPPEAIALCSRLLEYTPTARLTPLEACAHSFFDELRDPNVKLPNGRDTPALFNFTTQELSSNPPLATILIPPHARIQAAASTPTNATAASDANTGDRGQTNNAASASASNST
Method: Human GSK3beta (expressed and prified from SF21 cells) is obtained from the University Dundee/Scotland (Dr. James Hastie—Dept. of Biochemistry) in 50 mM Tris (pH7.5); 150 mM NaCl; 0.1 mM EGTA, 270 mM Succrose, 0.1% β-mercaptoethanol, 1 mM benzamidine, 0.2 mM PMSF; sequence see below). The enzyme is diluted to 3.56 μM (168 μg/ml) in enzyme dilution buffer and 6 μl aliquots are stored at −80° C.
The activity of GSK3 kinase protein is measured using the Z′-LYTETM assay technology from Invitrogen (# PV3324).
The assay is performed in 384 black plates from Corning (#3676) in a final volume of 10 μl by adding 5 μl of kinase peptide mix and 2.5 μl of compound dilution. The reaction is started by addition of 2.5 μl of the 4×ATP solution.
Positive controls are reaction mixtures containing no test compound; negative controls (blanks) are reaction mixtures containing no ATP. As a further control, the phosphopeptide solution is added to wells without kinase and without ATP (=100% phosphorylation control).
The non inhibited kinase reaction will result in a phosphorylation corresponding to 20%-30% of the phosphorylation control.
The reaction is performed 1 h at room temperature. After 1h 5 μl of the development solution is added. After a further incubation for 1 h at room temperature 5 μl of the stop reagent is added. Finally the plates are read on a Flex Station II 384 (Molecular Devices).
The output text file is evaluated in an “MS-Excel—VB-Makro” and “GraphPadPrism” (Version 5) (GraphPad Software Inc.) is used to calculate the results. Data for the inhibition of GSK3beta are reported in M. data for the inhibition of the protease are reported in % CTL.

[5] = target: FLT3 (Homo sapiens (Human), UniProt P36888); assay: FLT3 kinase test (Z'-LYTE); assay type: biochemical
Chain of FLT3 (P36888 27-993): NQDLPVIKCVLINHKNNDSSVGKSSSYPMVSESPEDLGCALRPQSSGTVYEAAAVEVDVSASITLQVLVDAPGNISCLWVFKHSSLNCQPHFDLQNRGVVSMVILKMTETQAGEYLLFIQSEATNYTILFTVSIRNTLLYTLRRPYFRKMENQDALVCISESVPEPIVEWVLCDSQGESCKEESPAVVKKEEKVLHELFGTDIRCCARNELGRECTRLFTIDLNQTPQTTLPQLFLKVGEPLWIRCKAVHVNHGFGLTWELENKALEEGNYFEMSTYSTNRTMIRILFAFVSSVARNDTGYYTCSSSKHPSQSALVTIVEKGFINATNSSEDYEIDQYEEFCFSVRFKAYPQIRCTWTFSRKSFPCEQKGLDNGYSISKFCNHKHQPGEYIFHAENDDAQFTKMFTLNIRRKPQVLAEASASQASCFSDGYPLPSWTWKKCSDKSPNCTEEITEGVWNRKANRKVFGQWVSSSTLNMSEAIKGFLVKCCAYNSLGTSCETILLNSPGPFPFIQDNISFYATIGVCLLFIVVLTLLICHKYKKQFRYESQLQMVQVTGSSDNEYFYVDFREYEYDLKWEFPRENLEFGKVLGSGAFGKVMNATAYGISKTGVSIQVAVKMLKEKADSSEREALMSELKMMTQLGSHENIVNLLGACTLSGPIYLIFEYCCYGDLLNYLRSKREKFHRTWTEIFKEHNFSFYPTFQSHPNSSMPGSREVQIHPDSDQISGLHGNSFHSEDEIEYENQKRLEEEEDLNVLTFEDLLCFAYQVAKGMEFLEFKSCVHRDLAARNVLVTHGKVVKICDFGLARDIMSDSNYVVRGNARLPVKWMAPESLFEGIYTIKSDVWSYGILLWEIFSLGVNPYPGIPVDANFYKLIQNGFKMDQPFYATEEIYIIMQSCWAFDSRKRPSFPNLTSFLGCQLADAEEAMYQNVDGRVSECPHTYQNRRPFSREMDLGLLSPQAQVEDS
Outline: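 Z'-LYTE FRET format; kinase reaction started with ATP, run 1 h at room temperature, then 1 h development before stop reagent. Controls without compound, without kinase, and phosphopeptide as 100% phosphorylation reference; values reported in M.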

[6] = read-out: IC50 in μM (AURB-Inhibition)
[7] = read-out: IC50 in μM (SYK-Inhibition)
[8] = read-out: IC50 in μM (FLT3-Inhibition)
[9] = Table 1, read-out: AURB-inhibition IC50-value
[10] = Table 1, read-out: SYK-inhibition IC50-value
[11] = Table 1, read-out: FLT3-inhibition IC50-value
[12] = Table 2a, read-out: IC50 in μM (AURB-Inhibition)
[13] = Table 2a, read-out: IC50 in μM (SYK-Inhibition)
[14] = Table 2a, read-out: IC50 in μM (FLT3-Inhibition)

Chain of Recombinant human Aurora B (amino acids 1-344) (Q96GD4 whole entry, the tested form may be a part): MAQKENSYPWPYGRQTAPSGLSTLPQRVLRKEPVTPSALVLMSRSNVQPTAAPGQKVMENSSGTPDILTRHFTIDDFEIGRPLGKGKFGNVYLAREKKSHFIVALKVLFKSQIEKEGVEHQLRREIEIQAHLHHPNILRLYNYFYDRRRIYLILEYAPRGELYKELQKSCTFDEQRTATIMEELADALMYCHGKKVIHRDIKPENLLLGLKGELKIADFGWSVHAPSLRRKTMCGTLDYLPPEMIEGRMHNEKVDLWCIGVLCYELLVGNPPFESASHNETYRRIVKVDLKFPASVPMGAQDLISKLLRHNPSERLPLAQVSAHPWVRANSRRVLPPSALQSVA

SMILES	IC50 [1, 6] [µM]	microsomal stability Cl [% Qh] ([2]; Qh = liver blood flow)	IC50 [3, 7] [µM]	IC50 [4] [µM]	IC50 [5, 8] [µM]	IC50 [1, 9] [µM]	IC50 [3, 10] [µM]	IC50 [5, 11] [µM]	IC50 [1, 12] [µM]	microsomal stability Cl [% Qh] ([2]; test compound 1 μM, Table 2a)	IC50 [3, 13] [µM]	IC50 ([4]; Table 2a) [µM]	IC50 [5, 14] [µM]
COc1cc(-c2cc3ncccc3c(O[C@H](C)[C@H]3CNC(=O)C3)n2)ccc1OC(F)(F)F [4 of WO 2011/092128]	1.85	33	0.003	> 10	0.633	–	–	–	–	–	–	–	–
C[C@@H](Oc1cc(-c2ccccn2)cc2ncccc12)[C@H]1CNC(=O)C1 [6 of WO 2013/014060]	1.03	24	0.004	> 1	0.64	–	–	–	–	–	–	–	–
COc1cc(-c2cc3ncccc3c(O[C@H](C)[C@H]3CNC(=O)C3)n2)cc(OC)c1OC [35 of WO 2011/092128]	5.21	62	0.001	> 10	1.18	–	–	–	–	–	–	–	–
C[C@@H](Oc1cc(-c2ccc3cnn(C)c3c2)cc2ncccc12)[C@H]1CNC(=O)C1 [42 of WO 2013/014060]	0.63	<23	–	> 10	0.618	–	–	–	–	–	–	–	–
Cc1cn2cc(-c3cc(O[C@H](C)[C@H]4CNC(=O)C4)c4cccnc4c3)ccc2n1 [61 of WO 2013/014060]	0.25	<23	–	> 10	0.411	–	–	–	–	–	–	–	–
C[C@@H](Oc1cc(-c2ccc(C(=O)N3CCN(C)CC3)cc2)cc2ncccc12)[C@H]1CNC(=O)C1 [76 of WO 2013/014060]	0.075	<23	–	> 10	0.169	–	–	–	–	–	–	–	–
C[C@@H](Oc1cc(-c2ccc3ncn(C)c3c2)cc2ncccc12)[C@H]1CNC(=O)C1 [81 of WO 2013/014060]	0.949	<23	–	> 10	0.514	–	–	–	–	–	–	–	–
Cc1nc2ccc(-c3cc(O[C@H](C)[C@H]4CNC(=O)C4)c4cccnc4c3)cc2s1 [85 of WO 2013/014060]	0.46	49	0.002	6.82	0.321	–	–	–	–	–	–	–	–
C[C@@H](Oc1cc(-c2ccc3c(c2)CNCC3)cc2ncccc12)[C@H]1CNC(=O)C1 [101 of WO 2013/014060]	1.05	<23	–	> 10	0.14	–	–	–	–	–	–	–	–
COc1cc(-c2cc(O[C@H](C)[C@H]3CNC(=O)C3)c3cccnc3c2)ccc1C(F)(F)F [102 of WO 2013/014060]	2.63	54	0.013	> 10	2.27	–	–	–	–	–	–	–	–
Cc1nc2cc(-c3cc(O[C@H](C)[C@H]4CNC(=O)C4)c4cccnc4c3)ccc2n1C [105 of WO 2013/014060]	0.479	64	0.001	> 10	0.309	–	–	–	–	–	–	–	–
Cc1nc(C)c2cc(-c3cc(O[C@H](C)[C@H]4CNC(=O)C4)c4cccnc4c3)ccc2n1 [107 of WO 2013/014060]	1.82	38	0.009	> 10	1.76	–	–	–	–	–	–	–	–
Cc1nc2cc(-c3cc(O[C@H](C)[C@H]4CNC(=O)C4)c4cccnc4c3)ccc2[nH]1 [109 of WO 2013/014060]	0.26	41	0.001	> 10	0.33	–	–	–	–	–	–	–	–
COc1ccc(-c2cc3nn(C)cc3c(O[C@H](C)[C@H]3CNC(=O)C3)n2)cc1OC [Example 1, (4R)-4-[(1R)-1-[6-(3,4-Dimethoxyphenyl)-2-methyl-pyrazolo[4,3-c]pyridin-4-yl]oxyethyl]pyrrolidin-2-one]	> 50	<23	0.016	> 10	3.99	> 50	0.016	3.99	–	–	–	–	–
C[C@@H](Oc1nc(-c2cnn(C(C)(C)C)c2)cc2nn(C)cc12)[C@H]1CNC(=O)C1 [Example 2, (4R)-4-[(1R)-1-[6-(1-tert-Butylpyrazol-4-yl)-2-methyl-pyrazolo[4,3-c]pyridin-4-yl]oxyethyl]pyrrolidin-2-one]	–	–	–	–	–	> 50	0.0144	14.8	> 50	<23	0.0144	> 10	14.8
COc1cc(-c2cc3nn(C)cc3c(O[C@H](C)[C@H]3CNC(=O)C3)n2)ccc1O [Example 8, (4R)-4-[(1R)-1-[6-(4-Hydroxy-3-methoxy-phenyl)-2-methyl-pyrazolo[4,3-c]pyridin-4-yl]oxyethyl]pyrrolidin-2-one]	> 50	<23	–	> 10	13.5	> 50	–	13.5	–	–	–	–	–
C[C@@H](Oc1cc(-c2cnn(C(C)(C)C)c2)cc2nn(C)cc12)[C@H]1CNC(=O)C1 [Example 18, (4R)-4-[(1R)-1-[6-(1-tert-butylpyrazol-4-yl)-2-methyl-indazol-4-yl]oxyethyl]pyrrolidin-2-one]	–	–	–	–	–	> 50	0.0046	13.4	> 50	<23	0.0046	> 10	13.4
C[C@@H](Oc1cc(-c2ccc(N3CCN(C)CC3)cc2)cc2nn(C)cc12)[C@H]1CNC(=O)C1 [Example 26, (4R)-4-[(1R)-1-[2-methyl-6-[4-(4-methylpiperazin-1-yl)phenyl]indazol-4-yl]oxyethyl]pyrrolidin-2-one]	> 50	<23	0.0258	> 10	0.95	> 50	0.0258	0.95	–	–	–	–	–
CC(C)Oc1ccc(-c2cc(O[C@H](C)[C@H]3CNC(=O)C3)c3cn(C)nc3c2)cn1 [Example 27, (4R)-4-[(1R)-1-[6-(6-isopropoxy-3-pyridyl)-2-methyl-indazol-4-yl]oxyethyl]pyrrolidin-2-one]	> 50	<23	0.138	> 10	26.6	> 50	0.138	26.6	–	–	–	–	–
C[C@@H](Oc1cc(-c2ccc3c(cnn3C)c2)cc2nn(C)cc12)[C@H]1CNC(=O)C1 [Example 28, (4R)-4-[(1R)-1-[2-methyl-6-(1-methylindazol-5-yl)indazol-4-yl]oxyethyl]pyrrolidin-2-one]	> 50	<23	0.0335	> 10	3.69	> 50	0.0335	3.69	–	–	–	–	–

Source: patent US9914735B2, “Heteroaryl Syk inhibitors” (Boehringer Ingelheim International GmbH, priority 2014, dated 2018)
